Structures can show the parent of a compound that is named as a salt. Where two headings read alike, the source gives them in different places.
Legend:
Tyk2 = Tyk2 (Homo sapiens (Human), UniProt P29597); experiment: pSTAT4 Cell Assay (MSD, NK92 cells); type: cell-based
JH2 domain of human Tyk2 = JH2 domain of human Tyk2 (Homo sapiens (Human), UniProt P29597); experiment: JH2 Biochemical Assay (TR-FRET probe displacement); type: binding
[1] = TR-FRET probe displacement, JH2 domain of human Tyk2
[2] = JH2 domain of human Tyk2, TR-FRET probe displacement
[3] = TR-FRET probe displacement, JH2 domain

Sequence of Tyk2 (P29597 whole entry, the tested form may be a part): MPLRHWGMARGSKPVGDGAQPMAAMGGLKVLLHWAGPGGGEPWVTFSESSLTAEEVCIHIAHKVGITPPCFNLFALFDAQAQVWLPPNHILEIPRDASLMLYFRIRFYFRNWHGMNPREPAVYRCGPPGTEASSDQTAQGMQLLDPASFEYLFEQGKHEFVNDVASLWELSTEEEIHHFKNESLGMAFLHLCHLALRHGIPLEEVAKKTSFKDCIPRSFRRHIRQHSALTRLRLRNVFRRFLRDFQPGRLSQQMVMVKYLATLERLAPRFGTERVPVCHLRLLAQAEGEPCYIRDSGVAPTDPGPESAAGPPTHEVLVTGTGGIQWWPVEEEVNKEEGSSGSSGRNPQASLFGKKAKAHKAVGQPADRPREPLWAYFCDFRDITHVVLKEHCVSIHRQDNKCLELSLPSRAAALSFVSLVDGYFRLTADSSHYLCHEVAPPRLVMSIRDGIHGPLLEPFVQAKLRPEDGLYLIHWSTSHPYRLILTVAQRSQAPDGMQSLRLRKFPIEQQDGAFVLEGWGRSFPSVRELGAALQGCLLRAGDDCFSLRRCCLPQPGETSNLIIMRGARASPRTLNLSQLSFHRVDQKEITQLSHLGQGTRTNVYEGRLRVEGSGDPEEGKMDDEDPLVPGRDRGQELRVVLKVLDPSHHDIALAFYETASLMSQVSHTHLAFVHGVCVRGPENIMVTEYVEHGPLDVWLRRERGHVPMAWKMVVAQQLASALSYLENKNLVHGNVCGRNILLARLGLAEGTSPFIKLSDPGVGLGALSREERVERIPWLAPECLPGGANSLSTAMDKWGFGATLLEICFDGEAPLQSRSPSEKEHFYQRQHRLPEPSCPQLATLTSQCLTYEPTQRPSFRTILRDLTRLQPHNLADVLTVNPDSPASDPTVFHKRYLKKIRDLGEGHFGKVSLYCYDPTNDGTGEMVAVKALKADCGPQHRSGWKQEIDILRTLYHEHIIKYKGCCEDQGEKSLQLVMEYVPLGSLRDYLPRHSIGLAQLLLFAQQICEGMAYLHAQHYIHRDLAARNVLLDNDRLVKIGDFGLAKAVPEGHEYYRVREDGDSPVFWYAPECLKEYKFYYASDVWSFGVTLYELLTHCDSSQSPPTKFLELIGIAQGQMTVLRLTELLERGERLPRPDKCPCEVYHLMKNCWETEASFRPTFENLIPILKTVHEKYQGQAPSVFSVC
Sequence of JH2 domain of human Tyk2 (P29597 575-876): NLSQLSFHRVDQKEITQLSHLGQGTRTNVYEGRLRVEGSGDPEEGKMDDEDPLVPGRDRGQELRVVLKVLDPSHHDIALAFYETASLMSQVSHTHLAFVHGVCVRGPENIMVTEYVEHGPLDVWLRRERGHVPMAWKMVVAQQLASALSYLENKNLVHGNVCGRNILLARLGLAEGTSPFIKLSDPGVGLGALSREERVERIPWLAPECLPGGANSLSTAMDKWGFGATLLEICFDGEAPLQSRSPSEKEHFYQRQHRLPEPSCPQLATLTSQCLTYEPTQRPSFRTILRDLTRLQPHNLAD

Row | Compound | IC50 (Tyk2; MSD) [nM] | IC50 (JH2 domain of human Tyk2; [1]) [nM] | IC50 (JH2 domain of human Tyk2; [2]) [nM] | IC50 (Tyk2) [nM] | IC50 (JH2 domain of human Tyk2; [3]) [nM]
1 | CC(=O)Nc1cc(Nc2cc(C)nc(C(C)(F)F)n2)c(OCC2CCC2)cn1 [Example 62, N-(5-(cyclobutylmethoxy)-4-((2-(1,1-difluoroethyl)-6-methylpyrimidin-4-yl)amino)pyridin-2-yl)acetamide] | 10 to 100 | ≤ 10 |  |  | 
2 | CC(=O)Nc1cc(Nc2cc(C)nc(C(C)(F)F)n2)c(OCc2ccc(F)c(F)c2)cn1 [Example 467, N-(5-((3,4-difluorobenzyl)oxy)-4-((2-(1,1-difluoroethyl)-6-methylpyrimidin-4-yl)amino)pyridin-2-yl)acetamide] | 10 to 100 |  | ≤ 10 |  | 
3 | CC(=O)Nc1cc(Nc2cc(C)nc(C(C)(F)F)n2)c(OCc2cnccc2C)cn1 [Example 470, N-(4-((2-(1,1-difluoroethyl)-6-methylpyrimidin-4-yl)amino)-5-((4-methylpyridin-3-yl)methoxy)pyridin-2-yl)acetamide] | 100 to 1000 |  | ≤ 10 |  | 
4 | C=Cc1cc(Nc2cc(NC(C)=O)ncc2OCCOC)nc(C(C)(F)F)n1 [Example 55, N-(4-((2-(1,1-difluoroethyl)-6-vinylpyrimidin-4-yl)amino)-5-(2-methoxyethoxy)pyridin-2-yl)acetamide] | ≤ 10 | ≤ 10 |  |  | 
5 | CCOc1cnc(NC(C)=O)cc1Nc1cc(-c2cnn(CC(C)C)c2)nc(C(C)(F)F)n1 [Example 371, N-(4-((2-(1,1-difluoroethyl)-6-(1-isobutyl-1H-pyrazol-4-yl)pyrimidin-4-yl)amino)-5-ethoxypyridin-2-yl)acetamide] | ≤ 10 |  | ≤ 10 |  | 
6 | COCc1cnn(-c2cnc(NC(C)=O)cc2Nc2cc(C)nc(C(C)(F)F)n2)c1 [Example 765, N-(4-((2-(1,1-difluoroethyl)-6-methylpyrimidin-4-yl)amino)-5-(4-(methoxymethyl)-1H-pyrazol-1-yl)pyridin-2-yl)acetamide] |  |  |  | 10 to 100 | ≤ 10
7 | COCCOc1cncc(-c2cnc(NC(C)=O)cc2Nc2ccnc(C(C)(F)F)n2)n1 [Example 691, N-(4-((2-(1,1-difluoroethyl)pyrimidin-4-yl)amino)-5-(6-(2-methoxyethoxy)pyrazin-2-yl)pyridin-2-yl)acetamide] | 100 to 1000 |  | 10 to 100 |  | 
8 | CC(=O)Nc1cc(Nc2cc(C)nc(C(C)(F)F)n2)c(OCc2nc(C)c(C)o2)cn1 [Example 338, N-(4-((2-(1,1-difluoroethyl)-6-methylpyrimidin-4-yl)amino)-5-((4,5-dimethyloxazol-2-yl)methoxy)pyridin-2-yl)acetamide] | 10 to 100 | ≤ 10 |  |  | 
9 | CC(=O)Nc1cc(Nc2cc(C)nc(C(C)(F)F)n2)c(OCC(F)C2CCC2)cn1 (centres unmarked) [Example 420, N-(5-(2-cyclobutyl-2-fluoroethoxy)-4-((2-(1,1-difluoroethyl)-6-methylpyrimidin-4-yl)amino)pyridin-2-yl)acetamide] | 10 to 100 |  | ≤ 10 |  | 
10 | CC(=O)Nc1cc(Nc2cc(C3CC3)nc(C(C)(F)F)n2)c(-c2ccn(C)n2)cn1 [Example 206, N-(4-((6-cyclopropyl-2-(1,1-difluoroethyl)pyrimidin-4-yl)amino)-5-(1-methyl-1H-pyrazol-3-yl)pyridin-2-yl)acetamide] | ≤ 10 | ≤ 10 |  |  | 
11 | COC1(C)CN(c2ccc(-c3cnc(NC(C)=O)cc3Nc3ccnc(C(C)(F)F)n3)nn2)C1 [Example 874, N-(4-((2-(1,1-difluoroethyl)pyrimidin-4-yl)amino)-5-(6-(3-methoxy-3-methylazetidin-1-yl)pyridazin-3-yl)pyridin-2-yl)acetamide] |  |  |  | ≤ 10 | ≤ 10
12 | CC(=O)Nc1cc(Nc2ccnc(C(C)(F)F)n2)c(-c2ccc(CN3CCC4(COC4)C3)cn2)cn1 [Example 703, N-(5-((2-oxa-6-azaspiro[3.4]octan-6-yl)methyl)-4′-((2-(1,1-difluoroethyl)pyrimidin-4-yl)amino)-[2,3′-bipyridin]-6′-yl)acetamide] | ≤ 10 |  | ≤ 10 |  | 
13 | COc1cnc(NC(C)=O)cc1Nc1cc(-c2cc(F)c3nc(C)cn3c2)nc(C(C)(F)F)n1 [Example 398, N-(4-((2-(1,1-difluoroethyl)-6-(8-fluoro-2-methylimidazo[1,2-a]pyridin-6-yl)pyrimidin-4-yl)amino)-5-methoxypyridin-2-yl)acetamide] | 10 to 100 |  | ≤ 10 |  | 
14 | CC(=O)Nc1cc(Nc2cc(C)nc(C(C)(F)F)n2)c(-c2cc3n(n2)CCN(C(C)=O)C3)cn1 [Example 222, N-(5-(5-acetyl-4,5,6,7-tetrahydropyrazolo[1,5-a]pyrazin-2-yl)-4-((2-(1,1-difluoroethyl)-6-methylpyrimidin-4-yl)amino)pyridin-2-yl)acetamide trifluoroacetate] | ≤ 10 | ≤ 10 |  |  | 
15 | COCc1cnc(NC(C)=O)cc1Nc1ccc(-c2ccn(C)n2)c(OC)n1 [Example 48, N-(4-((6-methoxy-5-(1-methyl-1H-pyrazol-3-yl)pyridin-2-yl)amino)-5-(methoxymethyl)pyridin-2-yl)acetamide] | ≥ 1000 | 100 to 1000 |  |  | 
16 | COc1cnc(NC(C)=O)cc1Nc1cc(-c2ccc(C#N)cc2)nc(C(C)(F)F)n1 [Example 393, N-(4-((6-(4-cyanophenyl)-2-(1,1-difluoroethyl)pyrimidin-4-yl)amino)-5-methoxypyridin-2-yl)acetamide] | 10 to 100 |  | ≤ 10 |  | 

Row | Compound | IC50 (Tyk2; MSD) [nM] | IC50 (JH2 domain of human Tyk2; [1]) [nM] | IC50 (JH2 domain of human Tyk2; [2]) [nM] | IC50 (Tyk2) [nM] | IC50 (JH2 domain of human Tyk2; [3]) [nM]
17 | COc1cc(-c2cnc(NC(C)=O)cc2Nc2cc(C)nc(C(C)(F)F)n2)ncn1 [Example 194, N-(4-((2-(1,1-difluoroethyl)-6-methylpyrimidin-4-yl)amino)-5-(6-methoxypyrimidin-4-yl)pyridin-2-yl)acetamide] | ≤ 10 | ≤ 10 |  |  | 
18 | CC(=O)Nc1cc(Nc2cc(C)nc(C(C)(F)F)n2)c(OCC2(F)CCCOC2)cn1 (centres unmarked) [Example 417, N-(4-((2-(1,1-difluoroethyl)-6-methylpyrimidin-4-yl)amino)-5-((3-fluorotetrahydro-2H-pyran-3-yl)methoxy)pyridin-2-yl)acetamide] | ≤ 10 |  | ≤ 10 |  | 
19 | CC(=O)Nc1cc(Nc2ccnc(C(C)(F)F)n2)c(-c2cncc(OC(F)F)n2)cn1 [Example 689, N-(4-((2-(1,1-difluoroethyl)pyrimidin-4-yl)amino)-5-(6-(difluoromethoxy)pyrazin-2-yl)pyridin-2-yl)acetamide] | ≥ 1000 |  | 10 to 100 |  | 
20 | CC(=O)Nc1cc(Nc2ccnc(C(C)(F)F)n2)c(-c2cnn(CCN3CCOCC3)n2)cn1 [Example 778, N-(4-((2-(1,1-difluoroethyl)pyrimidin-4-yl)amino)-5-(2-(2-morpholinoethyl)-2H-1,2,3-triazol-4-yl)pyridin-2-yl)acetamide] |  |  |  | 10 to 100 | ≤ 10
21 | COCc1cnc(NC(C)=O)cc1Nc1cc(C)nc(C(C)(F)F)n1 [Example 47, N-(4-((2-(1,1-difluoroethyl)-6-methylpyrimidin-4-yl)amino)-5-(methoxymethyl)pyridin-2-yl)acetamide] | ≥ 1000 | 10 to 100 |  |  | 
22 | CC(=O)Nc1cc(Nc2cc(OC3CC3)nc(C(C)(F)F)n2)c(-c2cnccn2)cn1 [Example 824, N-(4-((6-cyclopropoxy-2-(1,1-difluoroethyl)pyrimidin-4-yl)amino)-5-(pyrazin-2-yl)pyridin-2-yl)acetamide] |  |  |  | 10 to 100 | ≤ 10
23 | CCOc1cnc(NC(C)=O)cc1Nc1cc(Cl)nc(C(C)(F)F)n1 [Example 372, N-(4-((6-chloro-2-(1,1-difluoroethyl)pyrimidin-4-yl)amino)-5-ethoxypyridin-2-yl)acetamide] | 10 to 100 |  | ≤ 10 |  | 
24 | CCOc1cnc(NC(C)=O)cc1Nc1cc(-c2cncc(OC)c2)nc(C(C)(F)F)n1 [Example 370, N-(4-((2-(1,1-difluoroethyl)-6-(5-methoxypyridin-3-yl)pyrimidin-4-yl)amino)-5-ethoxypyridin-2-yl)acetamide] | 10 to 100 |  | ≤ 10 |  | 
25 | CC(=O)Nc1cc(Nc2cc(C)nc(C(C)(F)F)n2)c(-c2nc(C)cc(C#N)n2)cn1 [Example 657, N-(5-(4-cyanO6-methylpyrimidin-2-yl)-4-((2-(1,1-difluoroethyl)-6-methylpyrimidin-4-yl)amino)pyridin-2-yl)acetamide] | 100 to 1000 |  | 10 to 100 |  | 
26 | COc1cnc(NC(C)=O)cc1Nc1cc(-c2cn(C)nc2C(F)(F)F)nc(C(C)(F)F)n1 [Example 395, N-(4-((2-(1,1-difluoroethyl)-6-(1-methyl-3-(trifluoromethyl)-1H-pyrazol-4-yl)pyrimidin-4-yl)amino)-5-methoxypyridin-2-yl)acetamide] | 100 to 1000 |  | ≤ 10 |  | 
27 | CCOc1cnc(NC(C)=O)cc1Nc1cc(F)nc(C(C)(F)F)n1 [Example 94, N-(4-((2-(1,1-difluoroethyl)-6-fluoropyrimidin-4-yl)amino)-5-ethoxypyridin-2-yl)acetamide trifluoroacetate] | 10 to 100 | ≤ 10 |  |  | 
28 | CC(=O)Nc1cc(Nc2ccnc(C(C)(F)F)n2)c(-c2cnc(C3CC3)cn2)cn1 [Example 694, N-(5-(5-cyclopropylpyrazin-2-yl)-4-((2-(1,1-difluoroethyl)pyrimidin-4-yl)amino)pyridin-2-yl)acetamide] | 10 to 100 |  | ≤ 10 |  | 
29 | CC(=O)Nc1cc(Nc2cc(OC3CC3)nc(C(C)(F)F)n2)c(Oc2cnn(C)c2)cn1 [Example 301, N-(4-((6-cyclopropoxy-2-(1,1-difluoroethyl)pyrimidin-4-yl)amino)-5-((1-methyl-1H-pyrazol-4-yl)oxy)pyridin-2-yl)acetamide] | 100 to 1000 | 10 to 100 |  |  | 
30 | CC(=O)Nc1cc(Nc2cc(C)nc(C(C)(F)F)n2)c(-c2ccc3nccn3n2)cn1 [Example 680, N-(4-((2-(1,1-difluoroethyl)-6-methylpyrimidin-4-yl)amino)-5-(imidazo[1,2-b]pyridazin-6-yl)pyridin-2-yl)acetamide] | 10 to 100 |  | ≤ 10 |  | 
31 | Cc1cc(Nc2cc(NC(N)=O)ncc2-c2ccn(C)n2)nc(C(C)(F)F)n1 [Example 288, 1-(4-((2-(1,1-difluoroethyl)-6-methylpyrimidin-4-yl)amino)-5-(1-methyl-1H-pyrazol-3-yl)pyridin-2-yl)urea] | ≤ 10 | ≤ 10 |  |  | 
